Assay results from patent publication US20220218614A1, “IONIZABLE CATIONIC LIPIDS AND LIPID NANOPARTICLES, AND METHODS OF SYNTHESIS AND USE THEREOF” (Tidal Therapeutics, Inc., priority 2020, published 2022).

System: human T cells in PBMC-engrafted NSG mice
Assay: In vivo reprogramming of immune cells with DiI LNP expressing GFP in PBMC-humanized NSG mice
Design: species or system mouse
Details: 24 h
Experimental: The NSG (NOD.Cg-Prkdcscid Il2rgtmlWjl/SzJ) mouse model was purchased from Jax Laboratories. 6-8 weeks old male mice were engrafted with 10 million PBMC of qualified donor in sterile PBS by tail vein injection. Individual body weight was monitored twice a week and blood samples were collected at appropriate interval to evaluate human immune cells engraftment.
50 μl blood was collected by tail vein bleed from each mouse. Red blood cells were lysed using Versalyse, RBC lysis solution following protocol as instructed by manufacturer (Beckman Coulter A09777). Cells were stained with hCD45 & hCD3 to determine the engraftment of human T-cells. After 15 days of PBMC injection, mice had anywhere from 30-60% huCD45+. These humanized mice were evaluated for reprogramming of immune cells by LNPs expressing DiI dye and GFP.
At time zero, mice (n=4 per group) were injected with GFP expressing DiI LNPs (by i. v. at 0.3 mg/kg or 0.1 mg/kg with appropriate buffer. At each time point, 24 or 48h depending on the example mice treated with either LNPs or buffer were sacrificed. Terminal blood and tissues collection was performed to determine DiI and GFP expression in different organs and immune cells as below.
At above specified timepoints, mice were anesthetized with CO2 before sample collection. For blood collection, the chest was opened to expose the heart. […]

CCCCC/C=C\C/C=C\CCCCCCCC(=O)OC[C@H](CCN(C)C)OC(=O)CCCCCCC/C=C\C/C=C\CCCCC [Lipid 5]
GFP expression of T cells in blood and lung (0.1 mg/kg, CD3 (hsp34) targeted LNP, DPG-PEG-1.5%): about 25% | in vivo reprogramming (GFP, DiI) of T cells, in words (0.3 mg/kg (0.1 mg/kg in Example 30)): superior for reprogramming T cells
